According to ChEMBL document CHEMBL5107991, “Conversion of oxadiazolo[3,4-b]pyrazines to imidazo[4,5-b]pyrazines via a tandem reduction-cyclization sequence generates new mitochondrial uncouplers” (Bioorg Med Chem Lett, 2022):
pEC50: −log10 of the molar value. Activity calls are given as the source filed them. No cut-off for these calls is given here.

test system: not listed separately; experiment: Induction of mitochondrial uncoupled respiration in rat L6 myoblasts assessed as increase in oxygen consumption rate measured by Agilent Seahorse XF analyzer; assay type: functional, cell-based

Compound	pEC50
Oc1nc2nonc2nc1Nc1ccc(OC(F)(F)F)cc1	5.37

test system: not listed separately; experiment: Induction of mitochondrial uncoupled respiration in rat L6 myoblasts assessed as increase in oxygen consumption rate at 10 uM measured by Agilent Seahorse XF analyzer; assay type: functional

Compound	Activity [%]
Fc1ccccc1Nc1nc2nc(C(F)(F)F)[nH]c2nc1Nc1ccccc1F	50
Fc1cccc(Nc2nc3[nH]c(C(F)(F)F)nc3nc2Nc2ccccc2F)c1	100
FC(F)(F)c1nc2nc(Nc3ccccc3C(F)(F)F)c(Nc3ccccc3C(F)(F)F)nc2[nH]1	>150
Fc1ccc(C(F)(F)F)cc1Nc1nc2nc(C(F)(F)F)[nH]c2nc1Nc1cc(C(F)(F)F)ccc1F	100
Cn1c(C(F)(F)F)nc2nc(Nc3cc(C(F)(F)F)cc(C(F)(F)F)c3)c(Nc3cc(C(F)(F)F)cc(C(F)(F)F)c3)nc21	100
Fc1cccc(Nc2nc3nc(C(F)(F)F)[nH]c3nc2Nc2cccc(F)c2F)c1F	>150
Fc1c(Nc2nc3nc(C(F)(F)F)[nH]c3nc2Nc2cccc(C(F)(F)F)c2F)cccc1C(F)(F)F	>150

test system: not listed separately; experiment: (§1) Induction of mitochondrial uncoupled respiration in rat L6 myoblasts assessed as increase in oxygen consumption rate at 50 uM measured by Agilent Seahorse XF analyzer; assay type: functional

Compound	Activity [%]
Fc1ccccc1Nc1nc2nc(C(F)(F)F)[nH]c2nc1NC1CCCCC1	125
Fc1ccccc1Nc1nc2nc(C(F)(F)F)[nH]c2nc1Nc1ccccc1F	150
Fc1cccc(Nc2nc3[nH]c(C(F)(F)F)nc3nc2Nc2ccccc2F)c1	150
Fc1ccccc1Nc1nc2nc(C(F)(F)F)[nH]c2nc1Nc1ccccc1	50
Cn1c(C(F)(F)F)nc2nc(Nc3cc(C(F)(F)F)ccc3F)c(Nc3cc(C(F)(F)F)ccc3F)nc21	>200
Cn1c(C(F)(F)F)nc2nc(Nc3cc(C(F)(F)F)cc(C(F)(F)F)c3)c(Nc3cc(C(F)(F)F)cc(C(F)(F)F)c3)nc21	>300
Cc1ccc(Nc2nc3[nH]c(C(F)(F)F)nc3nc2Nc2ccccc2F)cc1	50
FC(F)(F)c1cc(Nc2nc3nc(C(F)(F)F)[nH]c3nc2Nc2cc(C(F)(F)F)cc(C(F)(F)F)c2)cc(C(F)(F)F)c1	100

test system: L6; experiment: as §1; assay type: functional

Compound	Activity
FC(F)(F)c1nc2nc(Nc3ccccc3)c(Nc3ccccc3)nc2[nH]1	Active
Cc1ccc(Nc2nc3nc(C(F)(F)F)[nH]c3nc2Nc2ccc(C)cc2)cc1	Active
